In patent US9434724B2, “Quinuclidines for modulating alpha 7 activity” (priority 2014, dated 2016):

What was measured:
[1] = Metabolic stability assay in rat liver microsomes (RLM); format: in vitro ADME; conditions: 1 μM
Procedure: (§1) Protocol 1: Studies were carried out in human and rat liver microsomes (“HLM” and “RLM,” respectively). Human and rat liver microsomes were purchased from BD Gentest. DMSO stocks were prepared for the test compounds. Aliquots of the DMSO solutions were diluted to 0.5 mM by acetonitrile, then further diluted by liver microsomes/buffer to 1.5 μM. 30 μL of 1.5 μM solutions were mixed with 15 μL of 6 mM NADPH, which had been pre-warmed to 37° C., at a final test compound concentration of 1 μM. The plates were kept in a 37° C. water bath for the duration of the experiment. At each time point (0, 5, 15, 30, 45 minutes), 135 μL of acetonitrile was added into corresponding wells. After the final time point was sampled, the plates were shaken at a vibrator (IKA, MTS 2/4) for 10 min (600 rpm/min) and then centrifuged at 5594 g for 15 min (Thermo Multifuge×3R). Aliquots of the supernatant were removed, diluted 1:1 into distilled water, and analyzed by LC-MS/MS. The peak area response ratio to internal standard (PARR) of the compounds at 5, 15, 30, 45 minutes was compared to the PARR at time 0 to determine the percent of test compound remaining at each time point. Half-lives were calculated using Excel software, fitting to a single-phase exponential decay equation.
(§2) Protocol 2: Studies were carried out in human and rat liver microsomes. Buffer solutions were prepared as follows: Buffer A: 1.0 L of 0.1 M monobasic Potassium Phosphate buffer containing 1.0 mM EDTA; Buffer B: 1.0 L of 0.1 M Dibasic Potassium Phosphate buffer containing 1.0 mM EDTA; Buffer C: 0.1 M Potassium Phosphate buffer, 1.0 mM EDTA, pH 7.4 by titrating 700 mL of buffer B with buffer A while monitoring with a pH meter.
(§3) Reference compound (Ketanserin) and test compound spiking solutions were prepared as follows: 500 μM spiking solution: add 10 μL of 10 mM DMSO stock solution into 190 μL ACN; 1.5 μM spiking solution in microsomes (0.75 mg/mL): add 1.5 μL of 500 μM spiking solution and 18.75 μL of 20 mg/mL liver microsomes into 479.75 μL of Buffer C.
(§4) NADPH stock solution (6 mM) was prepared by dissolving NADPH into buffer C.
(§5) Assay procedure: 30 μL of 1.5 μM spiking solution containing 0.75 mg/mL microsomes solution was dispensed to the wells designated for […]. The plate was pre-incubated at 37° C. for 10 minutes. 15 μL of NADPH stock solution (6 mM) was added to the wells designated as Time 45, and the timer was started. At 30 mM, 15 mM, and 5 mM, 15 μL NADPH stock solution (6 mM) was added to the wells, respectively. At the end of incubation (0 mM), 135 μL of ACN containing IS was added to all the wells. Then 15 μL of NADPH stock solution (6 mM) was added to the wells designated as Time 0. After quenching, the reaction mixtures were centrifuged at 3220 g for […]. Following centrifugation, 50 μL of the supernatant was transferred from each well into a 96-well sample plate containing 50 μL of ultra-pure water (Millipore) for LC/MS analysis. The peak area response (PARR) ratio to internal standard of the compounds at 5, 15, 30, and 45 minutes was compared to the PARR at time 0 to determine the percent of test compound remaining at each time point. Half-lives were calculated using Excel software, fitting to a single-phase exponential decay equation.

[2] = Human plasma stability; format: in vitro ADME; conditions: plasma
Procedure: Protocol 1: Studies were carried out in human plasma. All plasma was obtained from Bioreclamation and collected on sodium heparin. Plasma was adjusted to pH 7.4. A DMSO stock was first prepared for the test compound. An aliquot of the DMSO solution was dosed into 1 mL of plasma, which had been pre-warmed to 37° C., at a final test compound concentration of 1 μM. The vials were kept in a benchtop Thermomixer® for the duration of the experiment. Aliquots (100 μL) were taken at each time point (0, 15, 30, 60, and 120 minutes) and added to 96-well plates which had been pre-filled with 300 μL of acetonitrile. Samples were stored at 4° C. until the end of the experiment. After the final time point was sampled, the plate was mixed and then centrifuged at 3,000 rpm for 10 minutes. Aliquots of the supernatant were removed, diluted 1:1 into distilled water, and analyzed by LC-MS/MS. The peak area response ratio to internal standard (PARR) of the compound at 15, 30, 60 and 120 minutes was compared to the PARR at time 0 to determine the percent of test compound remaining at each time point. Half-lives were calculated using GraphPad software, fitting to a single-phase exponential decay equation.
Protocol 2: Studies were carried out in plasma. Plasma was prepared under approval of IRB and IACUC on sodium heparin. The pH of plasma was monitored and used within the range of pH 7.4 to pH 8.0. DMSO stocks were prepared for the test compounds. Aliquots of the DMSO solutions were diluted to 0.05 mM by 0.05 mM Sodium phosphate buffer with 0.5% BSA. Then 10 μL of 0.05 mM solutions were dosed into 90 μL of plasma in duplicates (n=2), which had been pre-warmed to 37° C., at a final test compound concentration of 5 μM. The plates were kept in a 37° C. water bath for the duration of the experiment. At each time point (0, 5, 15, 30, 45, 60, and 120 minutes), 400 μL of acetonitrile was added into corresponding wells. After the final time point was sampled, the plates were shaken at the vibrator (IKA, MTS 2/4) for 10 min (600 rpm/min) and then centrifuged at 5594 g for 15 min (Thermo Multifuge×3R). Aliquots of the supernatant were removed, diluted 1:1 into distilled water, and analyzed by LC-MS/MS. The peak area response ratio to internal standard (PARR) of the compounds at 5, 15, 30, 45, 60, and 120 minutes was compared to the PARR at time 0 to determine the percent of test compound remaining at each time point. Half-lives were calculated using Excel software, fitting to a single-phase exponential decay equation.

[3] = target: rat brain nicotinic receptor (α7 NAChR) (Rattus norvegicus (Rat), UniProt Q05941); format: binding
rat brain nicotinic receptor (α7 NAChR), sequence (Q05941 23-502 limits assumed): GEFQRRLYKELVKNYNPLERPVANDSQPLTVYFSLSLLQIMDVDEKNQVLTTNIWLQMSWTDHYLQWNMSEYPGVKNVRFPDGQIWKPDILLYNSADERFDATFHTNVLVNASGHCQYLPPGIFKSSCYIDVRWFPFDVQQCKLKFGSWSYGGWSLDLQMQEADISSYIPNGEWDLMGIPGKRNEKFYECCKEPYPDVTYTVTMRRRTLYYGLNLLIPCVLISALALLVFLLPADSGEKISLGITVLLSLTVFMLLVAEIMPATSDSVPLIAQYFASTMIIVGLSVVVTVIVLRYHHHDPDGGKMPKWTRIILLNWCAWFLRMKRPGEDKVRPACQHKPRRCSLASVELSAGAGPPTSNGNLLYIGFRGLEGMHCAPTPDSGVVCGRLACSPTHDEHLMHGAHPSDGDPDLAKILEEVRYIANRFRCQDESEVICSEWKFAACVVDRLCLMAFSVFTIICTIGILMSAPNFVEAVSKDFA

[4] = Metabolic stability assay in human liver microsomes (HLM); format: in vitro ADME; conditions: 1 μM
Procedure: as §1, §2, §3, §4, §5

[5] = Protocol No. 1, rat liver microsomes
[6] = Protocol No. 1, human liver microsomes

Row | Compound | RLM [1, 5] [mL/min/kg] | % Remaining @ 2 h ([2]; Protocol No. 2, 5 μM, 37° C.) [%] | T1/2 ([2]; Protocol No. 2, 5 μM, 37° C.) [h] | IC50 [3] [nM] | Ki [3] [nM] | HLM [4, 6] [mL/min/kg] | RLM ([1]; rat, microsomes) [mL/min/kg] | % Remaining @ 2 h ([2]; human, 2 h, 5 μM) [%] | HLM ([4]; human, microsomes) [mL/min/kg] | T1/2 ([2]; human)
1 | quinuclidin-4-ylmethyl 6-fluoro-4-methoxy-1H-indole-3-carboxylate [Compound 82] | 433.66 | 48.22 | 2.0738 | 412 | 357 | 8 | – | – | – | –
2 | Cc1ccc2[nH]cc(C(=O)OCC34CCN(CC3)CC4)c2c1C [Compound 70, quinuclidin-4-ylmethyl 4,5-dimethyl-1H-indole-3-carboxylate] | – | – | – | 315 | 272 | – | 1349.06 | 71.56 | 0 | –
3 | COc1cc2c(C(=O)OCC34CCN(CC3)CC4)c[nH]c2cc1O [Compound 86, quinuclidin-4-ylmethyl 6-hydroxy-5-methoxy-1H-indole-3-carboxylate] | – | – | – | – | – | – | 17.38 | 22.88 | 7.35 | –
4 | O=C(OCC12CCN(CC1)CC2)c1c[nH]c2cccc(C3CC3)c12 [Compound 61, Quinuclidin-4-ylmethyl 4-cyclopropyl-1H-indole-3-carboxylate] | – | – | – | 1890 | 1620 | – | 434.65 | 93.59 | 10.81 | –
5 | COc1cc2c(C(=O)OCC34CCN(CC3)CC4)c[nH]c2cc1C#N [Compound 76, quinuclidin-4-ylmethyl 6-cyano-5-methoxy-1H-indole-3-carboxylate] | – | – | – | 643 | 552 | – | 41.0701 | 72.92 | 20.5897 | –
6 | Cl.O=C(OCC12CCN(CC1)CC2)c1c[nH]c2cc(F)cc(Cl)c12 [Compound 64, quinuclidin-4-ylmethyl 4-chloro-6-fluoro-1H-indole-3-carboxylate hydrochloride] | 77.4932 | 76.61 | – | 337 | 291 | 2.7474 | – | – | – | –
7 | Cc1cc2c(C(=O)OCC34CCN(CC3)CC4)c[nH]c2cc1F [Compound 58, quinuclidin-4-ylmethyl 6-fluoro-5-methyl-1H-indole-3-carboxylate] | – | – | – | 1810 | 1550 | – | – | – | – | –
8 | COc1c(C)ccc2[nH]cc(C(=O)OCC34CCN(CC3)CC4)c12 [Compound 75, quinuclidin-4-ylmethyl 4-methoxy-5-methyl-1H-indole-3-carboxylate] | – | – | – | 52.5 | 45 | – | 474.267 | 120.98 | 5.749 | ∞
9 | O=C(OCC12CCN(CC1)CC2)c1c[nH]c2ccc(F)c(Br)c12 [Compound 67, quinuclidin-4-ylmethyl 4-bromo-5-fluoro-1H-indole-3-carboxylate] | – | – | – | 201 | 173 | – | 594.86 | 98.92 | 6.65 | –
10 | COc1cc2c(C(=O)OCC34CCN(CC3)CC4)c[nH]c2cc1C.Cl [Compound 79, quinuclidin-4-ylmethyl 5-methoxy-6-methyl-1H-indole-3-carboxylate hydrochloride] | 576.18 | 56.12 | – | – | – | 10.72 | – | – | – | –
11 | O=C(OCC12CCN(CC1)CC2)c1c[nH]c2ccc3c(c12)OCCO3 [Compound 81, quinuclidin-4-ylmethyl 2,3-dihydro-7H-[1,4]dioxino[2,3-e]indole-9-carboxylate] | – | – | – | – | – | – | 75.96 | 70.89 | 5.94 | –
12 | Cl.O=C(OCC12CCN(CC1)CC2)c1c[nH]c2cc(Cl)cc(Cl)c12 [Compound 71, quinuclidin-4-ylmethyl 4,6-dichloro-1H-indole-3-carboxylate hydrochloride] | 121.175 | 72.03 | – | 457 | 394 | 6.768 | – | – | – | –
13 | Cc1cc2[nH]cc(C(=O)OCC34CCN(CC3)CC4)c2cc1Cl.Cl [Compound 66, quinuclidin-4-ylmethyl 5-chloro-6-methyl-1H-indole-3-carboxylate hydrochloride] | 934.845 | 71.77 | – | 1190 | 1010 | 0 | – | – | – | –
14 | COc1cc(C#N)cc2[nH]cc(C(=O)OCC34CCN(CC3)CC4)c12 [Compound 77, quinuclidin-4-ylmethyl 6-cyano-4-methoxy-1H-indole-3-carboxylate] | – | – | – | 423 | 363 | – | 87.668 | 71.03 | 10.4452 | –
15 | Cc1cc2c(C(=O)OCC34CCN(CC3)CC4)c[nH]c2cc1Cl [Compound 78, quinuclidin-4-ylmethyl 6-chloro-5-methyl-1H-indole-3-carboxylate] | – | – | – | 1130 | 970 | – | 679.777 | 77.57 | 0 | –
16 | COc1cc2c(C(=O)OCC34CCN(CC3)CC4)c[nH]c2cc1Cl [Compound 69, quinuclidin-4-ylmethyl 6-chloro-5-methoxy-1H-indole-3-carboxylate] | – | – | – | 394 | 340 | – | 238.87 | 78.66 | 8.8 | –
17 | Cc1ccc2[nH]cc(C(=O)OCC34CCN(CC3)CC4)c2c1Br [Compound 68, quinuclidin-4-ylmethyl 4-bromo-5-methyl-1H-indole-3-carboxylate] | – | – | – | 266 | 229 | – | 1271.39 | 103.13 | 3.48 | ∞
